# Legend:
# [1] = test system: HeLa (human cervical adenocarcinoma); assay: MTT proliferation assay, HeLa; assay type: cell-based; details: 72 h treatment
# Procedure: (§1) The effect of the new synthesized compounds was tested on five human tumor cell lines, HeLa (human cervical adenocarcinoma; from ATCC), CaCo-2 (human colorectal adenocarcinoma), HL-60 (acute promyelocytic leukemia), HuT78 (T-cell lymphoma) and THP-1 (acute monocytic leukemia), and on one non-tumor cell line, MRC-5 (human fetal lung fibroblasts). The MRC-5 cells were used between 24 and 26 passages. The cells were cultured in two different types of media: DMEM (Gibco, EU) and RPMI 1640 (Gibco, EU). Both media were supplemented with 2 mM glutamine, fetal bovine serum (10%; heat inactivated) and antibiotics (100 U penicillin and 0.1 mg streptomycin). RPMI 1640 was additionally supplemented with 10 mM HEPES and 1 mM sodium pyruvate. The cells growing in a monolayer were cultured in DMEM, while the cells growing in suspension were cultured in RPMI 1640. The cells were grown in humidified atmosphere under the conditions of 37 °C/5% CO2 gas in the CO2 incubator (IGO 150 CELLlife^TM, JOUAN, Thermo Fisher Scientific, Waltham, MA, USA).
# (§2) Growth-inhibitory activity was assessed using a slightly modified procedure based on the National Cancer Institute’s protocol. Briefly, the cells were seeded in 96-well microtiter plates and incubated for 24 h. They were then treated with 10^−7 to 10^−4 M concentrations of the tested compounds for an additional 72 h. After the treatment period, the effects of the tested compounds on the growth rate of the cells were examined using the MTT assay. Absorbance was measured at 595 nm using a microplate reader. […] The selectivity index was calculated according to the following formula: SI=IC50 value of normal cell line/IC50 value of cancer cell line
# (§3) The effect of each concentration was analyzed by plotting the logarithm of the concentration of the evaluated compound against the corresponding percentage inhibition value using least squares.
# [2] = test system: CaCo-2 (human colorectal adenocarcinoma); assay: MTT proliferation assay, CaCo-2; assay type: cell-based; details: 72 h treatment
# Procedure: as §1, §2, §3
# [3] = test system: MRC-5 (human fetal lung fibroblasts, non-tumor); assay: MTT proliferation assay, MRC-5; assay type: cell-based; details: MRC5, 72 h treatment
# Procedure: as §1, §2, §3
# [4] = test system: THP-1 (acute monocytic leukemia); assay: MTT proliferation assay, THP-1; assay type: cell-based, human; details: Homo sapiens, THP-1; 72 h treatment, MTT
# Procedure: as §1, §2, §3
# [5] = test system: HL-60 (acute promyelocytic leukemia); assay: MTT proliferation assay, HL-60; assay type: cell-based; details: Homo sapiens, 72 h treatment
# Procedure: as §1, §2, §3
# Hut78 (T-cell lymphoma) = assay: MTT proliferation assay, HuT78; assay type: cell-based, human; details: Homo sapiens, HuT78; 72 h treatment, MTT
# Procedure: as §1, §2, §3
IC50 [1] [µM],IC50 [2] [µM],IC50 [4] [µM],melting point [°C],IC50 [5] [µM],IC50 (Hut78 (T-cell lymphoma)) [µM],SMILES,IC50 [3] [µM]
> 100,> 100,> 100,215 to 217,> 100,> 100,"Cl.Cl.Cl.N=C(N)c1ccc2[nH]c(-c3ccc(OCc4cn(CCNc5ccnc6cc(Cl)ccc56)nn4)c(Br)c3)nc2c1 [Compound 15d, 2-{3-bromo-4-[(1-{2-[(7-chloroquinolin-4-yl)amino]ethyl}-1H-1,2,3-triazol-4-yl)methoxy]phenyl}-1H-benzo[d]imidazol-5-carboximidamide trihydrochloride]",> 100
> 100,> 100,1.65,92 to 94,2.62,3.98,"COc1ccc2[nH]c(-c3ccc(OCc4cn(CCNc5ccnc6cc(Cl)ccc56)nn4)c(Br)c3)nc2c1 [Compound 15c, N-[2-(4-{[2-bromo-4-(5-methoxy-1H-benzo[d]imidazol-2-yl)phenoxy]methyl}-1H-1,2,3-triazol-1-yl)ethyl]-7-chloroquinolin-4-amine]",> 100
> 100,> 100,4.66,155 to 157,11.6,7.88,"Clc1ccc2c(NCCn3cc(COc4ccc(-c5nc6ccccc6[nH]5)cc4Br)nn3)ccnc2c1 [Compound 15a, N-[2-(4-{[4-(1H-benzo[d]imidazol-2-yl)-2-bromophenoxy]methyl}-1H-1,2,3-triazol-1-yl)ethyl]-7-chloroquinolin-4-amine]",> 100
> 100,> 100,2.06,100 to 102,1.24,4.91,"Clc1ccc2[nH]c(-c3ccc(OCc4cn(CCNc5ccnc6cc(Cl)ccc56)nn4)c(Br)c3)nc2c1 [Compound 15b, N-[2-(4-{[2-bromo-4-(5-chloro-1H-benzo[d]imidazol-2-yl)phenoxy]methyl}-1H-1,2,3-triazol-1-yl)ethyl]-7-chloroquinolin-4-amine]",> 100
> 100,> 100,> 100,227 to 229,> 100,10.5,"Cl.Cl.Cl.N=C(N)c1ccc2[nH]c(-c3ccc(OCc4cn(CCNc5ccnc6cc(Cl)ccc56)nn4)cc3)nc2c1 [Compound 14d, 2-{4-[(1-{2-[(7-chloroquinolin-4-yl)amino]ethyl}-1H-1,2,3-triazol-4-yl)methoxy]phenyl}-1H-benzo[d]imidazol-5-carboximidamide trihydrochloride]",> 100

# The remaining lines, values behind:
SMILES,IC50 [1] [µM],IC50 [2] [µM],IC50 [4] [µM],melting point [°C],IC50 [5] [µM],IC50 (Hut78 (T-cell lymphoma)) [µM],IC50 [3] [µM]
"Clc1ccc2c(-n3cc(COc4ccc(-c5nc6ccccc6[nH]5)cc4Br)nn3)ccnc2c1 [Compound 10a, 4-(4-{[4-(1H-benzo[d]imidazol-2-yl)-2-bromophenoxy]methyl}-1H-1,2,3-triazol-1-yl)-7-chloroquinoline]",10,63.8,9.6,252 to 254,76.1,5.88,52.1
"Clc1ccc2c(NCCn3cc(COc4ccc(-c5nc6ccccc6[nH]5)cc4)nn3)ccnc2c1 [Compound 14a, N-[2-(4-{[4-(1H-benzo[d]midazole-2-yl)phenoxy]methyl}-1H-1,2,3-triazol-1-yl)ethyl]-7-chloroquinolin-4-amine]",> 100,> 100,> 100,221 to 223,> 100,> 100,> 100
"Cl.Cl.Cl.N=C(N)c1ccc2[nH]c(-c3ccc(OCc4cn(-c5ccnc6cc(Cl)ccc56)nn4)c(Br)c3)nc2c1 [Compound 10d, 2-(3-bromo-4-{[1-(7-chloroquinolin-4-yl)-1H-1,2,3-triazol-4-yl]methoxy}phenyl)-1H-benzo[d]imidazol-5-carboximidamide trihydrochloride]",> 100,> 100,> 100,200 to 202,> 100,> 100,> 100
"O=c1[nH]cc(F)c(=O)[nH]1 [Compound 5-FU, 5-fluorouracil, reference compound]",–,–,76.4,–,> 100,> 100,54.1
"CCCNC(=N)c1ccc2[nH]c(-c3ccc(OCc4cn(-c5ccnc6cc(Cl)ccc56)nn4)cc3)nc2c1.Cl.Cl.Cl [Compound 9e, 2-(4-{[1-(7-chloroquinolin-4-yl)-1H-1,2,3-triazol-4-yl]methoxy}phenyl)-N-propyl-1H-benzo[d]imidazol-5-carboximidamide trihydrochloride]",> 100,> 100,> 100,228 to 230,98.3,10.2,> 100
"Clc1ccc2[nH]c(-c3ccc(OCc4cn(CCNc5ccnc6cc(Cl)ccc56)nn4)cc3)nc2c1 [Compound 14b, 7-chloro-N-[2-(4-{[4-(5-chloro-1H-benzo[d]imidazol-2-yl)phenoxy]methyl}-1H-1,2,3-triazol-1-yl)ethyl]quinolin-4-amine]",> 100,> 100,> 100,213 to 215,> 100,> 100,> 100
"COc1ccc2[nH]c(-c3ccc(OCc4cn(-c5ccnc6cc(Cl)ccc56)nn4)c(Br)c3)nc2c1 [Compound 10c, 4-(4-{[2-bromo-4-(5-methoxy-1H-benzo[d]imidazol-2-yl)phenoxy]methyl}-1H-1,2,3-triazol-1-yl)-7-chloroquinoline]",9.86,9.92,6.23,170 to 172,18.2,3.89,8.54
"Cl.Cl.Cl.N=C(N)c1ccc2[nH]c(-c3ccc(OCc4cn(-c5ccnc6cc(Cl)ccc56)nn4)cc3)nc2c1 [Compound 9d, 2-(4-{[1-(7-chloroquinolin-4-yl)-1H-1,2,3-triazol-4-yl]methoxy}phenyl)-1H-benzo[d]imidazol-5-carboximidamide trihydrochloride]",> 100,> 100,> 100,240 to 242,> 100,2.52,> 100
"Clc1ccc2[nH]c(-c3ccc(OCc4cn(-c5ccnc6cc(Cl)ccc56)nn4)c(Br)c3)nc2c1 [Compound 10b, 4-(4-{[2-bromo-4-(5-chloro-1H-benzo[d]imidazol-2-yl)phenoxy]methyl}-1H-1,2,3-triazol-1-yl)-7-chloroquinoline]",8.11,10.9,10.6,–,55.2,6.43,> 100
"COc1ccc2[nH]c(-c3ccc(OCc4cn(CCNc5ccnc6cc(Cl)ccc56)nn4)cc3)nc2c1 [Compound 14c, 7-chloro-N-[2-(4-{[4-(5-methoxy-1H-benzo[d]imidazol-2-yl)phenoxy]methyl}-1H-1,2,3-triazol-1-yl)ethyl]quinolin-4-amine]",> 100,> 100,7.31,150 to 152,> 100,> 100,> 100

# From publication PMC10574761, “Novel 1,2,3-Triazole-Containing Quinoline–Benzimidazole Hybrids: Synthesis, Antiproliferative Activity, In Silico ADME Predictions, and Docking” (Molecules, 2023)
